Reference: patent US10562842B2, “Use of polyaminoisoprenyl derivatives in antibiotic or antiseptic treatment” (UNIVERSITE D'AIX-MARSEILLE, priority 2011, dated 2020)
In brackets after ≈: the same amount, converted by molar mass.

Experiments:
[1] = tested on: Ea289ΔacrB (Ea294); test: MIC of antibiotics ± test compound (MIC ratio), micro-broth dilution; assay type: cell-based, Enterobacter aerogenes; conditions: compound at MIC/4; for MIC ratio Chloramphenicol E. aerogenes Ea294 / MIC ratio Doxycycline E. aerogenes Ea294 / MIC ratio Nalidixic acid E. aerogenes Ea294: Example 4
Protocol: (§1) The Enterobacter aerogenes Ea289 strain is a Kans derivative of the MDR clinical isolate Ea27, the acrB mutant, EaEP294, was constructed from Ea289. Multidrug-resistant Salmonella enterica serovar Typhimurium DT104 strains (BN10055) was isolated from cattle in France, the isogenic acrB derivative mutant, BN10055ΔacrB, was constructed from BN10055. Strains were maintained at −80° C. in 25% (v/v) glycerol for cryoprotection. Bacteria were routinely grown in Mueller-Hinton (MH) broth at 37° C.
(§2) Susceptibilities to antibiotics and compounds were determined in microplates by broth dilution method, as previously described. Minimal Inhibitory Concentrations (MICs) were determined with an inoculum of 10^6 CFU in 200 μL of MH broth containing two-fold serial dilutions of each drug. […] All MIC determinations were repeated at least three times in independent experiments.
(§3) […] All MIC determinations were repeated at least three times in independent experiments. The MIC ratio corresponds to the ratio of the MIC of an antibiotic alone to the MIC of the same antibiotic in the presence of the tested compound (at MIC/4).
(§4) For reminder, the MIC ratio corresponds to the ratio of the MIC of the assessed antibiotic alone to the MIC of the same antibiotic in the presence of the tested compound (at MIC/4).

[2] = tested on: PAO1; test: as above; assay type: cell-based, Pseudomonas aeruginosa; conditions: compound at MIC/4
Protocol: as §2
(§5) The MICs of chloramphenicol±test compounds (MIC/4) were determined by the micro-broth dilution method (9). All MIC determinations were repeated at least three times in independent experiments. The MIC ratio corresponds to the ratio of the MIC of an antibiotic alone to the MIC of the same antibiotic in the presence of the tested compound (at MIC/4).
as §4

[3] = tested on: PA124; test: as above; assay type: cell-based, Pseudomonas aeruginosa; conditions: compound at MIC/4
Protocol: as §2, §5, §4

[4] = tested on: CHO-K1 cells; assay type: cell-based; conditions: for proliferation index, all the tested concentrations: Chinese hamster, 3 h
Protocol: Genotoxicity of compounds 11 and 14 was assessed by micronucleus test. The micronucleus test was performed on CHO-K1 cells with and without metabolic activation. Metabolic activation is obtained by adding in the medium S9 mix. S9 mix contains NADP, G6P and S9 fraction which is a crude preparation of enzymes obtained from the homogenized liver of rats. Briefly, CHO-K1 cells were cultured in Mc Coy's medium 5A and then transferred in the wells of Lab-Tek chamber slides at a concentration of 100 000 cells/ml. The cells were incubated during 24 h at 37° C. at CO2 (5%). The culture medium was replaced by Mc Coy's 5A medium comprising 10% per volume of S9 mix. The test compounds were added at increased concentrations. After being incubated during three hours at 37° C., the cells were rinsed with phosphate buffer (PBS) and then cultured in Mac Coy's 5A medium containing 3 μg/ml cytochalasine B. After an incubation of 21 hours at 37° C., the cells were rinsed, fixed with methanol and coloured with Giemsa 10% during 20 minutes. For each set of assays, the positive control was 0.05 μg/ml of mitomycine C or 5 μg/ml of benzo-a-pyrene. The negative control was culture medium containing 5% of PBS. The stained cells were then analysed by microscopy for the presence of micronuclei. The proliferation index was determined as follows: IP=(2×BIN+MON)/500. MON: number of mononucleated cells and BIN: number of binucleated cells.

[5] = tested on: strain IV2571223 - Escherichia coli pig (sensible); test: MIC of antibiotics in the presence and absence of test compound, veterinary strains; assay type: cell-based; parameters: MIC for strain IV2571223, Doxycycline in the presence of test compound: unit not given beside the values; conditions: compound at the Concentration (μM) (2-50)
Protocol: For each strain and each antibiotic, the MICs were determined in the presence and in the absence of one test compound.

[6] = tested on: Enterobacter aerogenes MDR Ea289; test: MIC of antibiotics ± test compound (MIC ratio), micro-broth dilution; assay type: cell-based; conditions: compound at MIC/4, Set 2; for MIC ratio (*) on Ea289 Dox: doxycycline; for MIC ratio (*) on Ea289 Nal: nalidixic acid
[7] = tested on: AG100; test: as above; assay type: cell-based, Escherichia coli; conditions: compound at MIC/4; Example 4
Protocol: as §2, §5, §4

[8] = tested on: Ea289; test: MIC by broth dilution (intrinsic MIC); assay type: cell-based, Enterobacter aerogenes; conditions: Klebsiella aerogenes; Enterobacter Ea289
Protocol: as §2

[9] = tested on: Ea294; test: MIC by broth dilution (intrinsic MIC); assay type: cell-based, Enterobacter aerogenes; conditions: Klebsiella aerogenes, read-out: intrinsic MIC, Ea294
Protocol: as §2

[10] = tested on: Salmonella Thyphimurium MDR BN10055; test: MIC of antibiotics ± test compound (MIC ratio), micro-broth dilution; assay type: cell-based, Salmonella enterica serovar Typhimurium; conditions: compound at MIC/4; for MIC ratio (*) on BN10055 Chl: chloramphenicol; for MIC ratio Chloramphenicol S. enterica BN10055 / MIC ratio Doxycycline S. enterica BN10055 / MIC ratio Nalidixic acid S. enterica BN10055: Example 4; for MIC ratio (*) on BN10055 Dox: doxycycline; for MIC ratio (*) on BN10055 Nal: nalidixic acid
Protocol: as §1, §2, §3, §4

[11] = tested on: BN10055ΔacrB; test: as above; assay type: cell-based, Salmonella enterica serovar Typhimurium; conditions: compound at MIC/4; for MIC ratio Chloramphenicol S. enterica BN1005ΔacrB / MIC ratio Doxycycline S. enterica BN1005ΔacrB / MIC ratio Nalidixic acid S. enterica BN1005ΔacrB: Example 4
Protocol: as §1, §2, §3, §4

[12] = tested on: Enterobacter aerogenes MDR Ea289; test: as above; assay type: cell-based; conditions: for MIC ratio Chloramphenicol E. aerogenes Ea289 / MIC ratio Doxycycline E. aerogenes Ea289 / MIC ratio Nalidixic acid E. aerogenes Ea289: Example 4
Protocol: The process consists of treating the MDR bacteria with the compounds of the invention in the presence of antibiotics.
as §2, §5
The compounds listed in Table 2 were tested for their ability to decrease the chloramphenicol MIC of Ea289, an Enterobacter aerogenes MDR strain (1). Each compound was first tested at MIC/4. […] All MIC determinations were repeated at least three times in independent experiments.
as §4

[13] = tested on: BN10055; test: MIC by broth dilution (intrinsic MIC); assay type: cell-based, Salmonella enterica; conditions: Salmonella enterica; Salmonella BN10055
Protocol: as §2

[14] = tested on: BN10055ΔacrB; test: MIC by broth dilution (intrinsic MIC); assay type: cell-based, Salmonella enterica; conditions: Salmonella BN10055ΔacrB
Protocol: as §2

[15] = chloramphenicol, compound at MIC/4, Set 2

Compound: CC(C)=CCCC(C)=CCNCCCN(CCCN)CCCN (racemic) [Compound 11, {3-[Bis-(3-amino-propyl)-amino]-propyl}-(3,7-dimethyl-octa-2,6-dienyl)-amine]
- MIC ratio(*) on Ea289ΔacrB Chl ([1]; chloramphenicol, Set 1): 16
- MIC ratio Chloramphenicol E. aerogenes Ea294 [1]: 16
- MIC ratio Doxycycline E. aerogenes Ea294 [1]: 4
- MIC ratio Nalidixic acid E. aerogenes Ea294 [1]: 8
- MIC ratio(*) on Ea289ΔacrB Ery ([1]; erythromycin, Set 1): 16
- MIC ratio(*) on Ea289ΔacrB Nal ([1]; nalidixic acid, Set 1): 8
- MIC ratio Cefepime Pseudomonas aeruginosa PAO1 [2]: 1
- MIC ratio Doxycycline Pseudomonas aeruginosa PAO1 [2]: >16
- MIC ratio Cefepime Pseudomonas aeruginosa PA124 [3]: 1
- MIC ratio Chloramphénicol Pseudomonas aeruginosa PA124 [3]: 128
- MIC ratio Doxycycline Pseudomonas aeruginosa PA124 [3]: >32
- MIC ratio Tetracycline Pseudomonas aeruginosa PA124 [3]: 8
- genotoxicity in vitro (micronucleus test) [4]: not genotoxic in vitro
- proliferation index, all the tested concentrations [4]: higher than 50%
- MIC for strain IV2571223, Doxycycline in the presence of test compound [5]: 0.03125
- MIC for strain IV2571223, Tylosine in the presence of test compound [5]: 16
- MIC ratio (*) on Ea289 Dox [6]: 32
- MIC ratio (*) on Ea289 Nal [6]: 8
- MIC ratio Chloramphenicol E. Coli AG100 [7]: 16
- MIC ratio Doxycycline E. Coli AG100 [7]: >32
- MIC ratio Oxacillin E. Coli AG100 [7]: 16
- MIC [8]: 31 µM (≈ 10.1 µg/mL)
- MIC [9]: 15 µM (≈ 4.87 µg/mL)
- MIC ratio (*) on BN10055 Chl ([10]; Set 1): 16
- MIC ratio (*) on BN10055 Chl ([10]; Set 2): 16
- MIC ratio Chloramphenicol S. enterica BN10055 [10]: 16
- MIC ratio Doxycycline S. enterica BN10055 [10]: 16
- MIC ratio Nalidixic acid S. enterica BN10055 [10]: 128
- MIC ratio (*) on BN10055 Dox ([10]; Set 2): 16
- MIC ratio(*) on BN10055 Ery ([10]; erythromycin, Set 1): 8
- MIC ratio (*) on BN10055 Nal ([10]; Set 1): 128
- MIC ratio (*) on BN10055 Nal ([10]; Set 2): 128
- MIC ratio(*) on BN10055ΔacrB Chl ([11]; chloramphenicol, Set 1): 2
- MIC ratio Chloramphenicol S. enterica BN1005ΔacrB [11]: 2
- MIC ratio Doxycycline S. enterica BN1005ΔacrB [11]: 2
- MIC ratio Nalidixic acid S. enterica BN1005ΔacrB [11]: 2
- MIC ratio(*) on BN10055ΔacrB Ery ([11]; erythromycin, Set 1): 8
- MIC ratio(*) on BN10055ΔacrB Nal ([11]; nalidixic acid, Set 1): 2
- Effective concentration (mM) for a MIC ratio of chloramphenicol ≥ 8 on Ea289 ([12]; chloramphenicol): 0.0078 mM
- efficient concentration, times lower than the control PAβN ([12]; chloramphenicol MIC ratio of 8 on Ea289): about 4.9 times
- activity, effective concentration compared with PAβN to reach a MIC ratio of 8 ([12]; chloramphenicol on Ea289): strong activity
- MIC ratio (*) on Ea289 Chl ([12]; chloramphenicol, compound at MIC/4, Set 1): 16
- MIC ratio (*) on Ea289 Chl [12, 15]: 8
- MIC ratio Chloramphenicol E. aerogenes Ea289 ([12]; compound at MIC/4): 8
- MIC ratio Doxycycline E. aerogenes Ea289 ([12]; compound at MIC/4): 32
- MIC ratio Nalidixic acid E. aerogenes Ea289 ([12]; compound at MIC/4): 8
- MIC ratio(*) on Ea289 Ery ([12]; erythromycin, compound at MIC/4, Set 1): 32
- MIC ratio (*) on Ea289 Nal ([12]; nalidixic acid, compound at MIC/4, Set 1): 8
- MIC [13]: 31 µM (≈ 10.1 µg/mL)
- intrinsic MIC, BN10055ΔacrB [14]: 15 µM

Compound: CC(C)=CCC/C(C)=C/CC/C(C)=C/CNCCCN(C)CCCN [Compound 14, {3-[(3-Amino-propyl)-methyl-amino]-propyl}-((2E,6E)-3,7,11-trimethyl-dodeca-2,6,10-trienyl)-amine]
- MIC ratio Chloramphenicol E. aerogenes Ea294 [1]: 2
- MIC ratio Doxycycline E. aerogenes Ea294 [1]: 4
- MIC ratio Nalidixic acid E. aerogenes Ea294 [1]: 4
- MIC ratio Cefepime Pseudomonas aeruginosa PAO1 [2]: 1
- MIC ratio Doxycycline Pseudomonas aeruginosa PAO1 [2]: >16
- MIC ratio Cefepime Pseudomonas aeruginosa PA124 [3]: 1
- MIC ratio Chloramphénicol Pseudomonas aeruginosa PA124 [3]: 128
- MIC ratio Doxycycline Pseudomonas aeruginosa PA124 [3]: >32
- MIC ratio Tetracycline Pseudomonas aeruginosa PA124 [3]: 8
- genotoxicity in vitro (micronucleus test) [4]: not genotoxic in vitro
- proliferation index, all the tested concentrations [4]: higher than 50%
- MIC for strain IV2571223, Doxycycline in the presence of test compound [5]: 0.03125
- MIC for strain IV2571223, Tylosine in the presence of test compound [5]: 2
- MIC ratio (*) on Ea289 Dox [6]: 64
- MIC ratio (*) on Ea289 Nal [6]: 32
- MIC ratio Chloramphenicol E. Coli AG100 [7]: 16
- MIC ratio Doxycycline E. Coli AG100 [7]: >32
- MIC ratio Oxacillin E. Coli AG100 [7]: 16
- MIC [8]: 31 µM (≈ 10.8 µg/mL)
- MIC [9]: 15 µM (≈ 5.24 µg/mL)
- MIC ratio (*) on BN10055 Chl ([10]; Set 2): 16
- MIC ratio Chloramphenicol S. enterica BN10055 [10]: 16
- MIC ratio Doxycycline S. enterica BN10055 [10]: 64
- MIC ratio Nalidixic acid S. enterica BN10055 [10]: 128
- MIC ratio (*) on BN10055 Dox ([10]; Set 2): 64
- MIC ratio (*) on BN10055 Nal ([10]; Set 2): 128
- MIC ratio Chloramphenicol S. enterica BN1005ΔacrB [11]: 2
- MIC ratio Doxycycline S. enterica BN1005ΔacrB [11]: 2
- MIC ratio Nalidixic acid S. enterica BN1005ΔacrB [11]: 4
- MIC ratio (*) on Ea289 Chl [12, 15]: 8
- MIC ratio Chloramphenicol E. aerogenes Ea289 ([12]; compound at MIC/4): 8
- MIC ratio Doxycycline E. aerogenes Ea289 ([12]; compound at MIC/4): 64
- MIC ratio Nalidixic acid E. aerogenes Ea289 ([12]; compound at MIC/4): 32
- MIC [13]: 31 µM (≈ 10.8 µg/mL)
- intrinsic MIC, BN10055ΔacrB [14]: 15 µM
